Assay results reported in paper PMC4971421, “Redox-Dependent Modulation of T-Type Ca^2+ Channels in Sensory Neurons Contributes to Acute Anti-Nociceptive Effect of Substance P” (Antioxidants & Redox Signaling, 2016).

What was measured:
[1] = system: T-type Ca^2+ channels (LVA Ca^2+ current) in DRG neurons; experiment: LVA (T-type) Ca2+ current, whole-cell patch clamp, cultured small-diameter DRG neurons; assay type: cell-based, rat; settings: 1 nM; mean ± SEM, n = 7; SEM
Procedure: (§1) DRG neurons from adult male Sprague–Dawley rats (170–180 g) were dissociated as previously described ([13], [29]) and cultured in DMEM supplemented with GlutaMax I, 10% fetal calf serum, penicillin (50 U/ml), and streptomycin (50 μg/ml) on glass coverslips that were coated with poly-D-lysine for 2–5 days in a humidified incubator (37°C, 5% CO2). No growth factors were added to the culture media. HEK 293 cells were cultured in the same DMEM media; cells were passaged every 2 days. Human NK1 receptor (GenBank accession No. AY462098) complementary DNA (cDNA) was from the Missouri Science and Technology cDNA Resource Center. WtCaV3.1 (GenBank accession No. AF027984), wtCaV3.2 (GenBank accession No. AF051946), CaV3.1Q172H, and CaV3.2H191Q were kindly provided by Dr E. Perez-Reyes (University of Virginia). HEK293 cells were transfected using Lipofectamine 2000 (Invitrogen) according to the manufacturer's instructions. ST101 was synthesized in house; Z944 was from Toronto Research Chemicals; PTX was from Enzo Life Science; and FluoZin-3AM was from Life Technologies. All other chemicals were from Sigma.
All recordings were made using Multiclamp 700B amplifier in combination with pCLAMP 10.4 software (Molecular Devices). Voltage-clamp recordings from DRG neurons were made using whole-cell patch clamp. The standard bath solution contained the following (in mM): 150 TEA-Cl; 2.5 CsCl; 2.5 CaCl2; 10 HEPES; 0.5 MgCl2; and 10 glucose (pH 7.4 adjusted with CsOH). The standard pipette solution contained the following (in mM): 110 CsCl; 3 MgCl2; 10 EGTA; 10 HEPES; 3 Mg-ATP; and 0.6 GTP (pH 7.4 adjusted with CsOH). The access resistance was typically within 4–8 MΩ. T-type calcium currents (LVA) were measured by 50 ms square voltage pulses to −40 mV from a holding potential of −90 mV. HVA currents were measured by 200 ms square voltage pulses to 0 mV from a holding potential of −90 mV.
where y is the current inhibition; A1 and A2 are the maximum and minimum effects, respectively; x is the S9SP concentration; and nH is the Hill coefficient.

[2] = system: high-voltage-activated (HVA) Ca^2+ currents in DRG neurons; experiment: HVA Ca2+ current, whole-cell patch clamp, DRG neurons; assay type: cell-based, rat; settings: 1 nM
Procedure: as §1, with “ST101 was synthesized in house; Z944 was from Toronto Research Chemicals; PTX was from Enzo Life Science; and FluoZin-3AM was from Life Technologies. All other chemicals were from Sigma.” left out
All recordings were made using Multiclamp 700B amplifier in combination with pCLAMP 10.4 software (Molecular Devices). […] T-type calcium currents (LVA) were measured by 50 ms square voltage pulses to −40 mV from a holding potential of −90 mV. HVA currents were measured by 200 ms square voltage pulses to 0 mV from a holding potential of −90 mV.

[3] = system: small-diameter DRG neurons; experiment: DRG neuron excitability, perforated patch current clamp; assay type: cell-based, rat
Procedure: To knock down CaV3.2, DRGs were dissociated as described ([13]); immediately after dissociation, DRG pellets were resuspended in 900 μl DMEM (without GlutaMax I, serum or antibiotics), to which a mixture of 9 μl Lipofectamine RNAiMAX (Invitrogen) and either a mix of three anti-Cacna1h Stealth siRNAs (RSS350285, RSS350286, RSS350287; Life Technologies; 200 nM each) or a scrambled control oligo (Stealth RNAi™ siRNA Negative Control; Life Technologies; 200 nM) were added immediately before resuspension. Cultures were than plated in 50 μl droplets onto glass coverslips that were coated with poly-D-lysine and incubated for 5–6 h; the transfection media were then replaced with full DRG culture medium. Patch-clamp recordings were conducted 24–48 h after the transfection. The following primers were used for reverse transcription polymerase chain reaction (RT-PCR) analysis: • Cacna1h sense: 5′-[…]-3′ • Cacna1h AS: 5′-[…]-3′ • Gapdh sense: 5′-[…]-3′ • Gapdh AS: 5′-[…]-3′
Neuronal excitability was studied using the amphotericin B-perforated patch-clamp current technique ([13]). The extracellular solution contained the following (in mM): 160 NaCl, 2.5 KCl, 5 CaCl2, 1 MgCl2, 10 HEPES, and 8 Glucose. The intracellular solution contained the following (in mM): 145 KCl, 15 NaCl, 5 MgCl2, 10 HEPES, and 250 μg/ml Amphotericin B. The access resistance was typically within […]. APs were generated by an injection of 200 pA current for 1 s from a holding current of 0 pA. Rheobase was determined from a train of current steps from 0 to 400 pA delivered in 20-pA increments. Current clamp recordings were sampled at 12.5 kHz. Bridge balance adjustments were not applied, since only relative changes in Erest, AP number, and rheobase were investigated.

rat hind paw [4] = experiment: Nocifensive behavior after intraplantar hind-paw injection; assay type: in vivo; settings: hind-paw injection 50 μl; 0.001–10 nmol/site; 30 min
Procedure: Sprague–Dawley rats (body weight, 170–180 g) were grouped randomly and allowed to acclimate for at least 30 min in a transparent observation chamber before the experiment. Animals received a 50-μl intraplantar injection of ST101 (0.001–10 nmol/site), BK (10 nmol/site), RTG (1–10 nmol/site), Z944 (0.05–5 nmol/site), SP (0.5–5 nmol/site), or saline, respectively, into the right hind paw. For evaluation of the acute “spontaneous” pain, animals were video-recorded for 30 min after the injection and protective (“nocifensive”) behavior was analyzed as time spent licking, biting, lifting, and flinching the injected paw. The analyses were performed by an observer who was unaware of treatment allocations. In the pre-injection experiments, the right hind paw of the animal received a pre-injection of 50 μl Z944 (0.05–0.5 nmol/site), RTG (1–10 nmol/site), SP (0.5 nmol/site), Z944 (0.05–0.5 nmol/site)+RTG (1 nmol/site), or saline; 5 min later, on the same paw, the animal received a further 50-μl injection of BK (10 nmol/site) together with the pre-injection drug mix. Nocifensive behavior was analyzed as described earlier.

rat hind paw [5] = experiment: Hargreaves test, paw withdrawal latency to noxious heat; assay type: in vivo; settings: hind-paw injection 0.001 nmol/site; 8 min after injection
Procedure: For measurement of thermal hyperalgesia, the change in the latency of hind-paw withdrawal in response to noxious heat was recorded using the Hargreaves’ plantar method (Ugo Basile) at 8 min after the hind-paw injection of drugs; the heat source was set to 25% of the maximal intensity.

rat hind paw [6] = experiment: von Frey test; assay type: in vivo; settings: 50 μl; 0.001 nmol/site; filaments 2–15 g; 8 min after injection
Procedure: (§2) For measurement of sensitivity to gentle touch and mechanical hyperalgesia, two methods were used. (i) Cotton swab test was performed as previously described ([53]). Briefly, rats were allowed to acclimate in a cage with a wire mesh bottom for at least 30 min and then were manually probed with a “cotton swab” pulled from a Q-tip (to approximately three times the original size). A swab was applied in a sweeping motion underneath the rats’ paws, and the withdrawal responses were recorded. Five sweeps were applied in each test, with at least 10 s between each sweep; withdrawal score was calculated as a percentage of positive responses. (ii) The von Frey test was performed using a calibrated range of filaments with different bending forces (2, 4, 6, 8, 10, and 15 g; Stoelting Co.). A single filament was applied perpendicularly to the plantar surface of the hind paw for five times, with an interval of 5 s, and it was scored for withdrawal responses. Each force was probed five times, the number of withdrawals out of five trials was counted, and the percentage of withdrawal responses was calculated. Both types of assays were performed 8 min after the hind-paw drug injection.

rat hind paw [7] = experiment: Cotton swab test (gentle touch); assay type: in vivo; settings: 50 μl; 0.001 nmol/site
Procedure: as §2

[8] = system: delayed-rectifier K^+ current in DRG neurons; experiment: Delayed-rectifier K+ current in DRG neurons; assay type: cell-based, rat; settings: 1 nM
[9] = system: voltage-gated Na^+ current in DRG neurons; experiment: Voltage-gated Na+ current in DRG neurons; assay type: cell-based, rat; settings: 1 nM
CaV3 = settings: cited from earlier work
Procedure: The T-type Ca^2+ current is an important regulator of sensory neuron excitability ([10], [17], [18], [20], [23], [24], [51], [71], [75]). […] Z944 (1 μM) inhibited LVA curren ...

O=C1N=C2C=CC=CN2C12Cc1ccccc1C2 [ST101, spiro[imidazo[1,2-a]pyridine-3,2-indan]-2(3H)-one]
enhancement of peak LVA current [1]: 50.6% ± 14.1% | effect on HVA current [2]: without an effect | resting membrane potential (Erest) [3]: depolarized | action potential (AP) firing ([3]; 200 pA for 1 s): significantly increased | small DRG neuron excitability ([3]; perforated current clamp): increased | effect on Erest, AP number, or rheobase in Cacna1h knocked-down neurons ([3]; siRNA against Cacna1h): neither Z994 nor ST101 produced any significant effect | nocifensive behavior (rat hind paw [4]): moderate but significant protective effect | paw withdrawal latency on radiant heat exposure (rat hind paw [5]): significantly reduced | response to von Frey filament stimulation (rat hind paw [6]): greatly increased response rates | sensitivity to light touch, cotton swab assay (rat hind paw [7]): ineffective | effect on delayed-rectifier K^+ current [8]: no effect | effect on voltage-gated Na^+ current [9]: no effect | EC50, CaV3 potentiation (CaV3): sub-nanomolar range
